Measured values reported in patent US8785499B2 (priority 2009, dated 2014).
Like-named read-outs stand apart in the source and are kept apart here.

What was measured:
[1] = target: ecNadD (Escherichia coli (strain K12), UniProt P0A752); assay: biochemical; type: biochemical; conditions: for inhibition at 100 µM: read-out: INHIBITION (%) E. coli
[2] = target: baNadD (Bacillus anthracis, UniProt C3L5T6); assay: biochemical; type: biochemical; conditions: for inhibition at 50 µM: read-out: INHIBITION (%) B. anthracis
baNadD, sequence (C3L5T6 whole entry, looked up): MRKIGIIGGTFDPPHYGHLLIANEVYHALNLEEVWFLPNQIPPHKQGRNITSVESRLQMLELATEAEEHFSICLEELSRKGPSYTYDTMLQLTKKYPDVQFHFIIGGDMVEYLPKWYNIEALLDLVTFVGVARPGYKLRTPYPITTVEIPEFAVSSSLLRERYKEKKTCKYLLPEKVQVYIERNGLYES

CC(=O)Nc1ccc(NS(=O)(=O)c2ccc(O)c(C(=O)O)c2)cc1 [compound 035]
[…]. coli [1]: 20% | […]. anthracis [2]: 0%

CC(c1ccccc1)c1nnc(N)s1 (stereo not shown) [compound 242]
[…]. coli [1]: 0% | […]. anthracis [2]: 18%

Cc1ccc(S(=O)(=O)/N=C(\N)c2ccc(F)cc2)cc1 [compound 162]
[…]. coli [1]: 4% | […]. anthracis [2]: 0%

Cc1ccc([N+](=O)[O-])cc1NS(=O)(=O)c1ccc(F)cc1 [compound 264]
[…]. coli [1]: 0% | […]. anthracis [2]: 0%

CCS(=O)(=O)n1nc(-c2ccc(OC)cc2)nc1N [compound 149]
[…]. coli [1]: 5% | […]. anthracis [2]: 0%

Nc1c(C(=O)Nc2cccc(Cl)c2Cl)sc2nc(-c3cccs3)ccc12 [compound 003]
inhibition at 100 µM [1]: 73% | inhibition at 50 µM [2]: 40%

O=C(O)CCC(=O)OC/C=C/c1ccccc1 [compound 247]
[…]. coli [1]: 0% | […]. anthracis [2]: 18%

O=C(O)CCC(=O)NNC(=O)c1cccc(O)c1 [compound 017]
[…]. coli [1]: 27% | […]. anthracis [2]: 0%

O=C(O)CSc1nc(=O)cc(-c2ccccc2)[nH]1 [compound 176]
[…]. coli [1]: 3% | […]. anthracis [2]: 0%

O=C1C/C(=C/NCCc2ccc(O)cc2)C(=O)N1 [compound 068]
[…]. coli [1]: 13% | […]. anthracis [2]: 10%

O=C(CCC(=O)Nc1ccc(Br)cc1)N/N=C/c1cccc(Br)c1 [01_13]
inhibition at 100 µM [1]: 67% | IC50 ([2]; read-out: IC50 baNadD): 170 µM | inhibition at 50 µM [2]: 29%

Cc1ccc(C(=O)Nc2ccccc2)cc1S(=O)(=O)Nc1ccccn1 [compound 071]
[…]. coli [1]: 12% | […]. anthracis [2]: 7%

N=C(NNS(=O)(=O)c1ccccc1)c1ccccn1 [compound 161]
[…]. coli [1]: 4% | […]. anthracis [2]: 68%

CC(=NNC(=O)CCC(=O)Nc1ccc(Br)cc1)c1ccc2ccccc2c1 [compound 200]
[…]. coli [1]: 0% | […]. anthracis [2]: 76%

CCOC(=O)c1ccc(N/C=C2\C(=O)Oc3ccccc3C2=O)cc1 [compound 220]
[…]. coli [1]: 0% | […]. anthracis [2]: 0%

Nc1cc(=O)[nH]c(SCC(=O)Nc2ccc(S(N)(=O)=O)cc2)n1 [compound 164]
[…]. coli [1]: 4% | […]. anthracis [2]: 32%

O=C(CSC(=O)c1ccccc1)Nc1ccc(Cl)cn1 [compound 177]
[…]. coli [1]: 3% | […]. anthracis [2]: 21%

O=C(O)c1nonc1NCn1cnnn1 [compound 116]
[…]. coli [1]: 8% | […]. anthracis [2]: 5%

Nc1nc(-c2ccc(Cl)c([N+](=O)[O-])c2)n[nH]1 [compound 288]
[…]. coli [1]: 0% | […]. anthracis [2]: 0%

NS(=O)(=O)c1ccc(CCNC(=O)COc2ccc(Cl)cc2Cl)cc1 [compound 101]
[…]. coli [1]: 9% | […]. anthracis [2]: 0%

Nc1c(C(=O)Nc2cccc(Cl)c2)sc2nc(-c3ccc(F)cc3)ccc12 [03_16]
IC50 ([1]; IC50 ecNadD): 50 µM | inhibition at 100 µM [1]: 46% | IC50 ([2]; IC50 baNadD): 35 µM | inhibition at 50 µM [2]: 83%

CSc1ccccc1NC(=S)Nc1cccnc1 [compound 224]
[…]. coli [1]: 0% | […]. anthracis [2]: 0%

O=C1Nc2ccccc2/C1=C/Nc1ccc(F)cc1 [15_06]
inhibition at 100 µM [1]: 15% | inhibition at 50 µM [2]: 49%

O=C(O)c1ccc(OCOc2ccc(C(=O)O)c(C(=O)O)c2)cc1C(=O)O [compound 181]
[…]. coli [1]: 3% | […]. anthracis [2]: 56%

N/N=C/c1c(Cl)cccc1Cl [compound 191]
[…]. coli [1]: 1% | […]. anthracis [2]: 5%

Cc1nnc(SCC(=O)Nc2ccc(Cl)cn2)[nH]c1=O [compound 146]
[…]. coli [1]: 5% | […]. anthracis [2]: 11%

Nc1c(C(=O)Nc2ccc(F)cc2F)sc2nc(-c3ccncc3)ccc12 [03_27]
inhibition at 100 µM [1]: 0% | inhibition at 50 µM [2]: 20%

O=C(NCc1ccccn1)c1ccc(Cl)cc1Cl [compound 294]
[…]. coli [1]: 0% | […]. anthracis [2]: 0%

COc1ccc(-c2csc(N)n2)cc1[N+](=O)[O-] [compound 138]
[…]. coli [1]: 6% | […]. anthracis [2]: 54%
